The results in this text go back to paper PMC4045134, “Discovery of Triterpenoids as Reversible Inhibitors of α/β-hydrolase Domain Containing 12 (ABHD12)” (PLoS ONE, 2014).

Entries after “also recorded” stand apart in the source; their conditions may differ. Where two headings read alike, the source gives them in different places. Bounds are passed on as bounds.

In one experiment the target is T1, hABHD12 (Homo sapiens, UniProt Q8N2K0).
T1 construct: expressed in transfected cells; host or cells: HEK293 (transient)
T1 sequence (Q8N2K0 1-398): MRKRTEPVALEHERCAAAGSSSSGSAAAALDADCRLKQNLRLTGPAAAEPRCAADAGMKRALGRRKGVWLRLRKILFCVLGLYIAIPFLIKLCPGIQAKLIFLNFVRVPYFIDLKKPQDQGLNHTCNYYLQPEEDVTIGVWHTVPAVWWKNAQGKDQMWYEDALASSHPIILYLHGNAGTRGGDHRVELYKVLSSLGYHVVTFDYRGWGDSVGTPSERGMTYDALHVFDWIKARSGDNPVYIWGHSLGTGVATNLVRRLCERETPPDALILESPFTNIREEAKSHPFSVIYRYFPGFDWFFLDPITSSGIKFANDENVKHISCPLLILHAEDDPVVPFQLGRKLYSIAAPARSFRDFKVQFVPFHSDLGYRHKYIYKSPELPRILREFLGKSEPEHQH
Put plainly: Fluorescent glycerol assay of 1-AG hydrolysis in hABHD12-HEK293 lysates. The class given is biochemical. The conditions noted are these: for remaining activity at 10 µM: read-out: Remaining activity at 10 µM % ± s.e.m.; for Emax: read-out: max inhibition (converted); for inhibition at 10 µM: read-out: inhibition of hABHD12 at 10 µM. How it is done: (§1) Glycerol liberated from 1-AG hydrolysis was determined with a sensitive fluorescent assay using lysates of HEK293 cells with transient overexpression of hABHD12, hABHD6 or hMAGL, essentially as previously described. […] Fluorescence (λex 530; λem 590 nm) was monitored using a Tecan Infinite M200 plate reader (Tecan Group Ltd., Männedorf, Switzerland). Inhibitory activities of selected compounds towards FAAH were determined using membranes of hFAAH overexpressing COS-7 cells, essentially as previously described. The final incubation volume (100 µL) contained 1 µg of protein and the substrate concentration was 20 µM (10 nM of ^3H-anandamide having specific activity of 60 Ci/mmol and concentration of 1 mCi/mL).

The next experiment addresses T2, hMAGL (Homo sapiens, UniProt Q99685).
T2 construct: expressed in transfected cells; host or cells: HEK293 (transient)
T2 sequence (Q99685 1-303): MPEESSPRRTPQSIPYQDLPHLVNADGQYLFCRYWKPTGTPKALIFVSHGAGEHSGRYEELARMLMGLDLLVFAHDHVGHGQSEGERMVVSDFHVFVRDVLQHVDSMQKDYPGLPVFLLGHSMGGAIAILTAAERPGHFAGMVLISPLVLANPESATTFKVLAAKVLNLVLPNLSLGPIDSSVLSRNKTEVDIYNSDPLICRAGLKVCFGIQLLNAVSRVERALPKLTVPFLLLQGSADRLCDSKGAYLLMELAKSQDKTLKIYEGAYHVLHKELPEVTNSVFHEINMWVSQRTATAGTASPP
Put plainly: Fluorescent glycerol assay in hMAGL-HEK293 lysates. The class given is biochemical. The following applies: read-out: inhibition of MAGL at 10 µM. On the procedure:
as §1

Setting [1] is: hABHD12-HEK293 lysates, 10 µM, NI = no inhibition.
The mark [2] stands for this setting: hABHD12-HEK293 lysates, three independent experiments, read-out: -logIC50±s.e.m. (converted).
[3] abbreviates: hABHD12-HEK293 lysates, read-out: IC50.

The remaining activity is what remains of the control signal, in per cent. With `C=C(C)[C@@H]1CC[C@]2(CO)CC[C@]3(C)[C@H](CC[C@@H]4[C@@]5(C)CC[C@H](O)C(C)(C)[C@@H]5CC[C@]43C)[C@@H]12` [Compound 2, Betulin, reference compound], at hABHD12 (setting [1]), the remaining activity at 10 µM was roughly 75%.

In the case of `C=C(C)[C@@H]1CC[C@]2(COC(=O)CCC(C)=O)CC[C@]3(C)[C@H](CC[C@@H]4[C@@]5(C)CC[C@H](OC(=O)CCC(C)=O)C(C)(C)[C@@H]5CC[C@]43C)[C@@H]12` [Compound 28], the remaining activity at 10 µM at hABHD12 (setting [1]) was greater than 100%.

For `CC1(C)CC[C@]2(C(=O)O)CC[C@]3(C)C(=CC[C@@H]4[C@@]5(C)CC[C@H](O)[C@@](C)(CO)[C@@H]5CC[C@]43C)[C@@H]2C1` [Compound 9, Hederagenin, reference compound], the “hABHD12 inhibitory activity (in words)” value at hABHD12 is recorded as “did not inhibit hABHD12”. Besides, the remaining activity at 10 µM at hABHD12 (setting [1]) amounted to 78 ± 3%. For `C=C(C)[C@@H]1CC[C@]2(C(=O)N3CCCC3)CC[C@]3(C)[C@H](CC[C@@H]4[C@@]5(C)CCC(=O)C(C)(C)[C@@H]5CC[C@]43C)[C@@H]12` [Compound 21], the remaining activity at 10 µM on hABHD12 (setting [1]) is 80 ± 0.3%. Take `C[C@H]1[C@H](C)CC[C@]2(C(=O)O)CC[C@]3(C)C(=CC[C@@H]4[C@@]5(C)C[C@@H](O)[C@H](O)[C@@](C)(CO)[C@@H]5CC[C@]43C)[C@H]12` [Compound 5, Asiatic acid, reference compound]: the “hABHD12 inhibitory activity (in words)” value at hABHD12 was “did not inhibit hABHD12; also recorded: completely devoid of activity”. Moreover, the remaining activity at 10 µM at hABHD12 (setting [1]) is greater than 100%. `C=C(C)[C@@H]1CC[C@]2(C(=O)O)CC[C@]3(C)[C@H](CC[C@@H]4[C@@]5(C)Cc6cccnc6C(C)(C)[C@@H]5CC[C@]43C)[C@@H]12` [Compound 41]: the IC50 at hABHD12 (setting [2]) is 6.61 µM; on hABHD12 (setting [3]), 6.7 µM. For the same compound, at hABHD12 (hABHD12-HEK293 lysates), the Emax was 80%.

For orientation: inhibition means the percentage by which the read-out fell short of the control. `C=C(C)[C@@H]1CC[C@]2(C(=O)O)CC[C@]3(C)[C@H](CC[C@@H]4[C@@]5(C)Cc6ncccc6C(C)(C)[C@@H]5CC[C@]43C)[C@@H]12` [Compound 40, Lupa-2,20(29)-dieno[2,3-b]pyridin-28-oic acid]: the remaining activity at 10 µM on hABHD12 (setting [1]) stood at 66 ± 1.1%. On hABHD12, the inhibition at 10 µM was 34%. Consider `C=C(C)[C@@H]1CC[C@]2(COC(=O)/C=C/c3ccccc3)CC[C@]3(C)[C@H](CC[C@@H]4[C@@]5(C)CC[C@H](O)C(C)(C)[C@@H]5CC[C@]43C)[C@@H]12` [Compound 26], for which, on hABHD12 (setting [1]), the remaining activity at 10 µM was greater than 100%. Consider `C=C(C)[C@@H]1CC[C@]2(C(=O)O)CC[C@]3(C)[C@H](CC[C@@H]4[C@@]5(C)Cc6nccnc6C(C)(C)[C@@H]5CC[C@]43C)[C@@H]12` [Compound 42], for which the IC50 at hABHD12 (setting [2]) is 3.55 µM; at hABHD12 (setting [3]), 3.6 µM. In addition, the Emax on hABHD12 (hABHD12-HEK293 lysates) was 56%.

Turning to `C=C(C)[C@@H]1CC[C@]2(C(=O)NCCC)CC[C@]3(C)[C@H](CC[C@@H]4[C@@]5(C)CCC(=O)C(C)(C)[C@@H]5CC[C@]43C)[C@@H]12` [Compound 20], on hABHD12 (setting [1]), the remaining activity at 10 µM was 84 ± 1.5%.

Consider `C=C(C)[C@@H]1CC[C@]2(C=O)CC[C@]3(C)[C@H](CC[C@@H]4[C@@]5(C)Cc6cnoc6C(C)(C)[C@@H]5CC[C@]43C)[C@@H]12` [Compound 38], for which the “hABHD12 inhibitory activity (in words)” value on hABHD12 is “poor inhibitory activity; also recorded: complete loss of the inhibitory activity”. In addition, the remaining activity at 10 µM on hABHD12 (setting [1]) worked out at 84 ± 1.6%. For the compound `COC(=O)[C@]12CCC(C)(C)C[C@H]1[C@H]1C(=O)C=C3[C@@]4(C)C=C(C#N)C(=O)C(C)(C)[C@@H]4CC[C@@]3(C)[C@]1(C)CC2` [Compound 13, CDDO methyl ester, reference compound], the remaining activity at 10 µM on hABHD12 (setting [1]) was greater than 100%. Take `CC(C)[C@@]12CC[C@]3(CO)CC[C@]4(C)C(=C31)C(C[C@@H]1[C@@]3(C)CC[C@H](O)C(C)(C)[C@@H]3CC[C@]14C)n1c(=O)n(-c3ccccc3)c(=O)n12` (stereo partly shown) [Compound 39]: at hABHD12 (setting [1]), the remaining activity at 10 µM was found to be 86 ± 0.4%. Turning to `COC(=O)[C@]1(C)CC[C@]2(C)CC[C@]3(C)C4=CC=C5C(=CC(=O)C(O)=C5C)[C@]4(C)CC[C@@]3(C)[C@@H]2C1` [Compound 15, Pristimerin, reference compound], the remaining activity at 10 µM at hABHD12 is greater than 100%. With `C[C@H]1[C@H](C)CC[C@]2(C)CC[C@]3(C)C(=CC[C@@H]4[C@@]5(C)CC[C@H](O)C(C)(C)[C@@H]5CC[C@]43C)[C@H]12` [Compound 6, α-Amyrin, reference compound], the remaining activity at 10 µM at hABHD12 (setting [1]) was greater than 100%. For the compound `C=C(C)[C@@H]1CC[C@]2(C)CC[C@]3(C)[C@H](CC[C@@H]4[C@@]5(C)CC[C@H](O)C(C)(C)[C@@H]5CC[C@]43C)[C@@H]12` [Compound 3, Lupeol, reference compound], at hABHD12 (setting [1]), the remaining activity at 10 µM was greater than 100%. Regarding `CC1=C(O)C(=O)C=C2C1=CC=C1[C@@]2(C)CC[C@@]2(C)[C@@H]3C[C@](C)(C(=O)O)CC[C@]3(C)CC[C@]12C` [Compound 14, Celastrol, reference compound], at hABHD12 (setting [1]), the remaining activity at 10 µM is greater than 100%. Same read-out and setting: in the case of `C=C(C)[C@@H]1CC[C@]2(COC3CCCCO3)CC[C@]3(C)[C@H](CC[C@@H]4[C@@]5(C)CC[C@H](O)C(C)(C)[C@@H]5CC[C@]43C)[C@@H]12` (stereo partly shown) [Compound 29] it was greater than 100%.

Consider `CC1(C)CC[C@]23CC[C@]4(C)C(CC[C@@H]5[C@@]6(C)Cc7c([nH]c8ccc(F)cc78)C(C)(C)[C@@H]6CC[C@]54C)[C@H]2[C@H]1OC3` (stereo partly shown) [Compound 35], for which the “hABHD12 inhibitory activity (in words)” value on hABHD12 was “total loss of the inhibitory activity”. Also, the remaining activity at 10 µM at hABHD12 (setting [1]) was greater than 100%. The inhibition at 10 µM on hMAGL was roughly 50%. As for `C=C(C)[C@@H]1CC[C@]2(C(N)=O)CC[C@]3(C)[C@H](CC[C@@H]4[C@@]5(C)Cc6nccnc6C(C)(C)[C@@H]5CC[C@]43C)[C@@H]12` [Compound 43], the remaining activity at 10 µM on hABHD12 (setting [1]) came out at 69 ± 0.8%. In the case of `C=C(C)[C@@H]1CC[C@]2(C=O)CC[C@]3(C)[C@H](CC[C@@H]4[C@@]5(C)CC[C@H](O)C(C)(C)[C@@H]5CC[C@]43C)[C@@H]12` [Compound 16], on hABHD12 (setting [1]), the remaining activity at 10 µM is 71 ± 0.8%. For the same compound, the inhibition at 10 µM at hABHD12 is roughly 30%. `C=C(C)[C@@H]1CC[C@]2(COC(=O)CCC(C)=O)CC[C@]3(C)[C@H](CC[C@@H]4[C@@]5(C)CC[C@H](O)C(C)(C)[C@@H]5CC[C@]43C)[C@@H]12` [Compound 27]: the remaining activity at 10 µM on hABHD12 (setting [1]) turned out to be 85 ± 0.5%. On to `CC1(C)CC[C@]2(C)CC[C@]3(C)C(=CC[C@@H]4[C@@]5(C)CC[C@H](O)C(C)(C)[C@@H]5CC[C@]43C)[C@@H]2C1` [Compound 10, β-Amyrin, reference compound], for which the remaining activity at 10 µM on hABHD12 (setting [1]) is greater than 100%. For `C=C(C)[C@@H]1CC[C@]2(C(=O)O)CC[C@]3(C)[C@H](CC[C@@H]4[C@@]5(C)CC(O)C(O)C(C)(C)[C@@H]5CC[C@]43C)[C@@H]12` (stereo partly drawn) [Compound 32, 2β,3β-Dihydroxylup-20(29)-en-28-oic acid], on hABHD12 (setting [2]), the IC50 was 3.72 µM. Further, on hABHD12 (hABHD12-HEK293 lysates), the Emax was 100%. As for `CC1(C)CC[C@]2(C(=O)O)CC[C@]3(C)C(=CC[C@@H]4[C@@]5(C)CC[C@H](O)C(C)(C)[C@@H]5CC[C@]43C)[C@@H]2C1` [Compound 7, Oleanolic acid, reference compound], the remaining activity at 10 µM at hABHD12 (setting [1]) was roughly 20%.

Consider `C=C(C)[C@@H]1CC[C@]2(CO)CC[C@]3(C)[C@H](CC[C@@H]4[C@@]5(C)CC[C@H](OC(C)=O)C(C)(C)[C@@H]5CC[C@]43C)[C@@H]12` [Compound 30], for which, at hABHD12 (setting [1]), the remaining activity at 10 µM was greater than 100%. Regarding `C=C(C)[C@@H]1CC[C@]2(C(=O)O)CC[C@]3(C)[C@H](CC[C@@H]4[C@@]5(C)Cc6c[nH]nc6C(C)(C)[C@@H]5CC[C@]43C)[C@@H]12` [Compound 37], the IC50 on hABHD12 (setting [2]) is 1.45 µM. Besides, on hABHD12 (hABHD12-HEK293 lysates), the Emax is 100%.
